Measured values from patent publication EP0516725B1, “NEW USE OF LINOMIDE (R)” (Pharmacia AB (reg.number 556131-9608), priority 1990, dated 1991).

What was measured:
[1] = test system: spleen T lymphocyte subpopulations; experiment: Spleen T lymphocyte subpopulations by direct immunofluorescence after treatment of mice; type: in vivo, C57B1/6 mice; conditions: 160 mg/kg/day in the drinking water for 4 days
Description: C57B1/6 mice were given Linomide® (160 mg/kg/day) in the drinking water for 4 days. Control animals were given ordinary drinking water. […] 134:3956, 1985] and examined for the expression of cell surface markers by direct immunofluorescence. The following FITC-labeled monoclonal antibodies were used: HO-134 (Thy 1.2), GK 1.5 (CD4) and 19. 178c (CD8) [for reference to antibodies see Kalland, T.: Regulation of NK progenitors: Studies with a novel immunmodulator with distinct effects at the precursor level, J. Immunol. 144:4472-6, 1990]. The number of positive cells was determined by counting 400 cells in an epifluoroscence equipped Leitz microscope. Values represent mean ± SD of three mice.

[2] = Half life in mice; type: in vivo
[3] = Half life in cynomolgus monkeys; type: in vivo
[4] = Half life in rats; conditions: rat, in vivo
[5] = Half life in humans; conditions: human, in vivo
[6] = test system: YAC-1 cells; experiment: Spleen NK activity, conventional 51Cr-release assay after treatment of mice; conditions: 160 mg/kg/day in the drinking water for four days; for % CYTOTOXICITY: 3 mice
[7] = test system: SIVsm; experiment: SIVsm infection of cynomolgus monkeys (body weight, CD4 cells, virus isolation, clinical state); conditions: result in words
Description: Nine cynomolgus monkeys (Macaca Fascicularis) were used in this study. The mean body mass was 2600 g and the range was 2260 to 2930 g. The monkeys were housed in single cages in a biosafety level three facility. […] The absence of pre-existing retrovirus was further investigated by cocultivating monkey PBMC (=peripheral blood mononuclear cells) with human PHA-stimulated PBMC and testing of culture supernatants for reverse transcriptase activity.
Intraperitoneal treatment with Linomide® or NaCl started four days before challenge with live virus and subsequently every day (not during weekends) subcutaneosly during the time of follow-up. The follow-up is 75 days after live virus challenge. Monkeys L1-3 were treated with a low dose Linomide® 0.3 mg/kg bw x 2 Monkeys L4-6 were treated with a high dose Linomide® 3 mg/kg bw x 2 Monkeys L7-9 were given sodium chloride x 2 All monkeys were challenged with 10-100 animal ID₅₀ of live SIVsm. Animals were sacrificed when they became moribund.
T-lymphocyte subsets in peripheral blood were determined by immunofluorescence as previously described [Putkonen, P., Warstedt, K., Thorstensson, R., Benthin, R., Albert, J., Lundgren, B., Öberg, B., Norrby, E., Biberfeld, G.: Experimental infection of cynomolgus monkeys (Macaca Fascicularis with simian immunodeficiency virus (SIVsm), J. AIDS 1989:2, 359-365]. Peripheral blood samples were incubated with FITC-conjugated anti-CD4 (OKT4, Ortho) and anti-CD8 (Leu2, Becton Dickinson). The samples were analyzed in a Spectrum III flow cytometer (Ortho Diagnostics).

[8] = spleen cells, mean ± SD of three mice

## CN(C(=O)c1c(O)c2ccccc2n(C)c1=O)c1ccccc1 [Linomide®, N-phenyl-N-methyl-1,2-dihydro-4-hydroxy-1-methyl-2-oxo-quinoline-3-carboxamide]
[1]; [8]
  % Fluorescent cells CD4: 28±2%
  % Fluorescent cells CD8: 10±3%
  % Fluorescent cells Thy 1.2: 42±5%
[1]; result in words
  distribution of T lymphocyte subpopulations: do not significantly altler the distribution of T lymphocyte subpopulations
[2]
  half life: two
[3]
  half life: six
[4]
  half-life: 24 h
[5]
  half-life: ~48 h
[6]; Effector cell: Target cell ratio 25:1
  % CYTOTOXICITY: 14±4%
[6]; Effector cell: Target cell ratio 50:1
  % CYTOTOXICITY: 20±4%
[6]; Effector cell: Target cell ratio 100:1
  % CYTOTOXICITY: 29±5%
[6]; result in words
  NK activity: significantly enhances NK activity
[7]; all monkeys (low dose, high dose and control), 14 days after challenge
  qualitative virus isolation assay: virus could be isolated from all monkeys
[7]; high dose group (3 mg/kg bw x 2), one monkey
  body weight: dramatic reduction in body weight
[7]; low dose (0.3 mg/kg bw x 2)
  percentage of CD4⁺ cells in peripheral blood: essentially unaltered
[7]; monkeys L1-3, 0.6 mg/kg/day
  body weight: Only a slight weight reduction
[7]; monkeys L1-3 = low dose (0.3 mg/kg bw x 2)
  clinical condition: remained clinically healthy
